Results: US20220007644A1, “COMPOSITIONS COMPRISING PYRIDINE CARBOXYLATE HERBICIDES WITH PHOTOSYSTEM II AND OPTIONAL HPPD INHIBITOR HERBICIDES” (Corteva Agriscience LLC, priority 2018, published 2022)

Columns and labels:
Assay type in all cases: in vivo
[1] = tested on: MATCH, Matricaria chamomilla (wild chamomile); assay: Greenhouse postemergence herbicidal effect (visual injury, 20-22 d); settings: 140 g ai/ha alone
Source text: (§1) Greenhouse Trial Methodology—Evaluation of Postemergence Herbicidal Effect
(§2) Seeds of the desired test plant species were planted in a 90:10% v/v (volume/volume) mixture of PRO-MIX® BX (Premier Tech Horticulture, Quakertown, Pa., USA) and PROFILE®GREENS GRADE™ (Profile Products LLC, Buffalo Grove, Ill., USA) planting mixture, which typically has a pH of 5.2 to 6.2 and an organic matter content of at least 50 percent, in plastic pots with a surface area of 103.2 square centimeters (cm^2). In some aspects, to help ensure good germination and healthy plants, a fungicide treatment and/or other chemical or physical treatment was applied. The plants were grown for 7-36 days (d) in a greenhouse with an approximate 14-hour (h) photoperiod which was maintained at about 23° C. during the day and 22° C. during the night. Nutrients and water were added on a regular basis and supplemental lighting was provided with overhead metal halide 1000-Watt lamps as necessary. The plants were employed for testing when they reached the second or third true leaf stage.
(§3) Emulsifiable concentrates of each of each pyridine carboxylate herbicide (Compound A or Compound B) were prepared at 100 grams acid equivalent per liter (g ae/L). The emulsifiable concentrates also included a safener, cloquintocet-mexyl, at 120 grams active ingredient per liter (g ai/L), unless otherwise noted below. An aliquot of each emulsifiable concentrate was placed in a 25 mL glass vial and diluted with an aqueous mixture of 1.25% (v/v) ACTIROB® B esterified rapeseed oil (Bayer Crop Science, Research Triangle Park, N.C., USA) or MSO® Concentrate with LECI-TECH® methylated soybean oil (Loveland Products, Loveland, Colo., USA) to obtain concentrated stock solutions at the highest application rate for each herbicide, based upon a 12 milliliter (mL) application volume at a rate of 187 liters per hectare (L/ha). The concentrated stock solutions were further diluted with an aqueous mixture of 1.25% v/v ACTIROB® B or MSO® Concentrate with LECI-TECH® to obtain stock solutions at reduced application rates for each herbicide. Spray solutions of the herbicide combinations (Compound A or Compound B plus PS-II herbicide and optional HPPD herbicide) were prepared by adding weighed amounts or aliquots of the PS-II herbicide and optional HPPD herbicide to the stock solutions of Compound A or Compound B to form 12-mL spray solutions in two- or three-way combinations.
(§4) The spray solutions were applied to the plant material with an overhead Mandel track sprayer equipped with 8002E nozzles calibrated to deliver 187 L/ha over an application area of 0.503 square meters (m^2) at a spray height of 18 inches ([…] centimeters (cm)) above the average plant canopy. Control plants were sprayed in the same manner with the solvent blank. All pyridine carboxylate herbicide (component a) application rates are given as “g ae/ha” and all PS II inhibitor herbicide (component b) and HPPD inhibitor herbicide (component c) application rates are given as “g ai/ha.”
(§5) The treated plants and control plants were placed in a greenhouse as described above and watered by sub-irrigation to prevent wash-off of the test compounds. After 20-22 d, the condition of the test plants as compared with that of the control plants was determined visually and scored on a scale of 0 to 100 percent where 0 corresponds to no injury and 100 corresponds to complete kill.

[2] = tested on: KCHSC, Kochia scoparia (kochia); assay: as above
Source text: as §1, §2, §3, §4, §5

[3] = tested on: CHEAL, Chenopodium album L. (common lambsquarters); assay: as above
Source text: as §1, §2, §3, §4, §5

[4] = tested on: STEME, Stellaria media (chickweed); assay: as above
Source text: as §1, §2, §3, §4, §5

[5] = tested on: ABUTH, Abutilon theophrasti (velvetleaf); assay: as above
Source text: as §1, §2, §3, §4, §5

[6] = tested on: SINAR, Sinapis arvensis (wild mustard); assay: as above; settings: 140 g ai/ha alone
Source text: as §1, §2, §3, §4, §5

[7] = tested on: AMARE, Amaranthus retroflexus (pigweed); assay: as above; settings: 140 g ai/ha alone
Source text: as §1, §2, §3, §4, §5

[8] = tested on: BRSNN, Brassica napus (spring rape); assay: as above
Source text: as §1, §2, §3, §4, §5

[9] = tested on: SASKR, Salsola kali (Russian thistle); assay: as above; settings: 140 g ai/ha alone
Source text: as §1, §2, §3, §4, §5

[10] = tested on: EPHHL, Euphorbia heterophylla (poinsettia); assay: as above
Source text: as §1, §2, §3, §4, §5

[11] = tested on: SETFA, Setaria faberi (giant foxtail); assay: as above
Source text: as §1, §2, §3, §4, §5

[12] = tested on: CIRAR, Cirsium arvense (Canada thistle); assay: as above
Source text: as §1, §2, §3, §4, §5

[13] = tested on: POLCO, Polygonum convolvulus (wild buckwheat); assay: as above
Source text: as §1, §2, §3, §4, §5

[14] = tested on: VIOTR, Viola tricolor (wild pansy); assay: as above
Source text: as §1, §2, §3, §4, §5

[15] = tested on: BRSNW, Brassica napus (winter rape); assay: as above; settings: 140 g ai/ha alone
Source text: as §1, §2, §3, §4, §5

[16] = tested on: HORVS, Hordeum vulgare (spring barley); assay: Greenhouse postemergence phytotoxicity on crop (visual injury, 20-22 d); settings: 140 g ai/ha alone
Source text: as §1, §2, §3, §4, §5

[17] = tested on: TRZAS, Triticum aestivum (spring wheat); assay: as above; settings: 140 g ai/ha alone
Source text: as §1, §2, §3, §4, §5

With `N#Cc1cc(Br)c(O)c(Br)c1` [Bromoxynil, 3,5-dibromo-4-hydroxbenzonitrile, reference compound] as the compound, how does the visual injury [1] read?
The visual injury was 5%.

And the visual injury ([2]; 140 g ai/ha alone)?
Its visual injury is 38%.

What about the “visual injury Obs” value ([2]; 140 g ai/ha alone) of the same compound?
Its value is 35%.

What about the visual injury ([3]; 140 g ai/ha alone) of the same compound?
The visual injury was 0%.

And the “visual injury Obs” value ([3]; 140 g ai/ha alone)?
The value was 48%.

What about the “visual injury Obs” value ([4]; 140 g ai/ha alone) of the same compound?
The value was 0%.

What about the “visual injury Obs” value ([5]; 140 g ai/ha alone) of the same compound?
Its value is 30%.

What about the visual injury [6] of the same compound?
Its visual injury is 10%.

And the visual injury [7]?
The visual injury was 5%.

And the “visual injury Obs” value ([8]; 140 g ai/ha alone)?
The value was 3%.

What about the visual injury [9] of the same compound?
Its visual injury is 75%.

And the “visual injury Obs” value ([10]; 140 g ai/ha alone)?
The value was 30%.

And the “visual injury Obs” value ([11]; 140 g ai/ha alone)?
Its value is 0%.

What about the visual injury ([12]; 140 g ai/ha alone) of the same compound?
The visual injury was 45%.

What about the “visual injury Obs” value ([12]; 140 g ai/ha alone) of the same compound?
Its value is 60%.

And the visual injury ([13]; 140 g ai/ha alone)?
Its visual injury is 100%.

And the pest or weed control at 140 g/ha ([13]; Fallopia convolvulus, post-emergence, 140 g ai/ha alone, read-out: visual injury Obs)?
The pest or weed control at 140 g/ha was 55%.

And the “visual injury Obs” value ([14]; 140 g ai/ha alone)?
The value was 0%.

What about the visual injury [15] of the same compound?
The visual injury was 10%.

And the visual injury [16]?
The visual injury was 0%.

What about the visual injury [17] of the same compound?
Its visual injury is 0%.

`C#CCOC(=O)c1nc(-c2ccc3cc[nH]c3c2F)c(F)c(N)c1Cl` [Compound B, propargyl 4-amino-3-chloro-5-fluoro-6-(7-fluoro-1H-indol-6-yl)pyridine-2-carboxylate] was tested. Which visual injury ([2]; 7.5 g ae/ha alone) did it give?
Its visual injury is 68%.

And the visual injury ([2]; 10 g ae/ha alone)?
The visual injury was 80%.

What about the “% visual injury, Obs” value ([2]; KCHSC, Compound B 10 g/ha) of the same compound?
The value was 80%.

And the visual injury ([3]; 7.5 g ae/ha alone)?
Its visual injury is 85%.

What about the visual injury ([3]; 10 g ae/ha alone) of the same compound?
Its visual injury is 90%.

What about the “% visual injury, Obs” value ([3]; CHEAL, Compound B 10 g/ha) of the same compound?
The value was 90%.

What about the visual injury ([4]; 7.5 g ae/ha alone) of the same compound?
Its visual injury is 100%.

What about the visual injury ([4]; 10 g ae/ha alone) of the same compound?
The visual injury was 93%.

And the “% visual injury, Obs” value ([4]; STEME, Compound B 10 g/ha)?
The value was 93%.

What about the visual injury ([5]; 7.5 g ae/ha alone) of the same compound?
The visual injury was 68%.

What about the visual injury ([5]; 10 g ae/ha alone) of the same compound?
The visual injury was 68%.

What about the “% visual injury, Obs” value ([5]; ABUTH, Compound B 10 g/ha) of the same compound?
The value was 68%.

What about the visual injury ([8]; 7.5 g ae/ha alone) of the same compound?
Its visual injury is 68%.

And the visual injury ([8]; 10 g ae/ha alone)?
Its visual injury is 85%.

And the visual injury ([10]; 7.5 g ae/ha alone)?
The visual injury was 83%.

What about the visual injury ([10]; 10 g ae/ha alone) of the same compound?
Its visual injury is 99%.

What about the “% visual injury, Obs” value ([10]; EPHHL, Compound B 10 g/ha) of the same compound?
The value was 99%.

What about the visual injury ([11]; 7.5 g ae/ha alone) of the same compound?
Its visual injury is 70%.

And the visual injury ([11]; 10 g ae/ha alone)?
Its visual injury is 55%.

And the “% visual injury, Obs” value ([11]; SETFA, Compound B 10 g/ha)?
Its value is 55%.

And the visual injury ([12]; 7.5 g ae/ha alone)?
The visual injury was 45%.

What about the visual injury ([12]; 10 g ae/ha alone) of the same compound?
The visual injury was 45%.

What about the “% visual injury, Obs” value ([12]; CIRAR, Compound B 10 g/ha) of the same compound?
The value was 45%.

What about the visual injury ([13]; 7.5 g ae/ha alone) of the same compound?
Its visual injury is 73%.

And the visual injury ([13]; 10 g ae/ha alone)?
The visual injury was 80%.

And the “% visual injury, Obs” value ([13]; POLCO, Compound B 10 g/ha)?
Its value is 80%.

And the visual injury ([14]; 7.5 g ae/ha alone)?
Its visual injury is 10%.

And the visual injury ([14]; 10 g ae/ha alone)?
Its visual injury is 40%.

And the “% visual injury, Obs” value ([14]; VIOTR, Compound B 10 g/ha)?
Its value is 40%.
